From patent publication US11034650B2, “Compounds useful for treating a Mannheimia haemolytica or Histophilus somni infection” (Intervet Inc., priority 2016, dated 2021)
Values after ≈ are worked out from the molar mass of the structure shown.

Columns and labels:
Assay type in all cases: cell-based
[1] = tested on: Mannheimia haemolytica MH 10720 (154, BRD field isolate); experiment: MIC, broth-microdilution (CLSI VET01-A4), strain MH 10720; conditions: Mannheimia haemolytica strain MH 10720, broth-microdilution; unit assumed
How it was run: (§1)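 Test articles are arrayed as a twofold dilution range in microdilution trays. Wells are scored by naked eye, and the MIC is taken where turbidity first disappears.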

[2] = tested on: Pasteurella multocida PM 6391 (ATCC 43137, reference strain); experiment: MIC, broth-microdilution (CLSI VET01-A4), strain PM 6391; conditions: Pasteurella multocida strain PM 6391, broth-microdilution; unit assumed
How it was run: as §1

[3] = tested on: Pasteurella multocida PM 10775 (080130003051, BRD field isolate); experiment: MIC, broth-microdilution (CLSI VET01-A4), strain PM 10775; conditions: Pasteurella multocida strain PM 10775, broth-microdilution; unit assumed
How it was run: as §1

[4] = tested on: Mannheimia haemolytica MH 13093 (XB0472-6014.1, BRD field isolate); experiment: MIC, broth-microdilution (CLSI VET01-A4), strain MH 13093; conditions: Mannheimia haemolytica strain MH 13093, broth-microdilution; unit assumed
How it was run: as §1

[5] = tested on: Mannheimia haemolytica MH 6357 (M7/2, reference strain, cattle infection strain); experiment: MIC, broth-microdilution (CLSI VET01-A4), strain MH 6357; conditions: Mannheimia haemolytica strain MH 6357, broth-microdilution; unit assumed
How it was run: as §1

[6] = tested on: Pasteurella multocida PM 6267 (P 2225 (L386), reference strain, mouse infection strain); experiment: MIC, broth-microdilution (CLSI VET01-A4), strain PM 6267; conditions: Pasteurella multocida strain PM 6267, broth-microdilution; unit assumed
How it was run: as §1

[7] = tested on: Mannheimia haemolytica MH 12587 (1071, BRD field isolate, macrolide-resistance: erm+, E+); experiment: MIC, broth-microdilution (CLSI VET01-A4), strain MH 12587; conditions: Mannheimia haemolytica strain MH 12587, broth-microdilution; unit assumed
How it was run: as §1

[8] = tested on: Mannheimia haemolytica MH 13065 (XB0446-6003.9, BRD field isolate); experiment: MIC, broth-microdilution (CLSI VET01-A4), strain MH 13065; conditions: Mannheimia haemolytica strain MH 13065, broth-microdilution; unit assumed
How it was run: as §1

[9] = tested on: Pasteurella multocida PM 12080 (IV102277-0093, BRD field isolate); experiment: MIC, broth-microdilution (CLSI VET01-A4), strain PM 12080; conditions: Pasteurella multocida strain PM 12080, broth-microdilution; unit assumed
How it was run: as §1

[10] = tested on: Mannheimia haemolytica MH 6374 (ATCC 33396, reference strain); experiment: MIC, broth-microdilution (CLSI VET01-A4), strain MH 6374; conditions: Mannheimia haemolytica strain MH 6374, broth-microdilution; unit assumed
How it was run: as §1

Structure (SMILES) | MIC PM 6391 [2] [µg/mL] | MIC PM 10775 [3] [µg/mL] | MIC PM 6267 [6] [µg/mL] | MIC PM 12080 [9] [µg/mL] | MIC MH 10720 [1] [µg/mL] | MIC MH 13093 [4] [µg/mL] | MIC MH 6357 [5] [µg/mL] | MIC MH 12587 [7] [µg/mL] | MIC MH 13065 [8] [µg/mL] | MIC MH 6374 [10] [µg/mL]
CC(C)(O)[C@H](NC(=O)c1ccc(C#Cc2ccc(CN3CCOCC3)s2)cc1)C(=O)NO [Compound 293] | 0.2 (≈ 0.437 µM) | ≤ 0.1 | 1.6 (≈ 3.5 µM) | ≤ 0.1 | ≤ 0.1 | 0.8 (≈ 1.75 µM) | 0.4 (≈ 0.874 µM) | 0.8 (≈ 1.75 µM) | 0.4 (≈ 0.874 µM) | 0.8 (≈ 1.75 µM)
CC(C)(C(NC(=O)c1ccc(C#Cc2ccc(CN3CCOCC3)nc2)cc1)C(=O)NO)S(C)(=O)=O (centres unmarked) [Compound 350] | 0.8 (≈ 1.55 µM) | ≤ 0.1 | 6.3 (≈ 12.2 µM) | 0.4 (≈ 0.777 µM) | 1.6 (≈ 3.11 µM) | 6.3 (≈ 12.2 µM) | 6.3 (≈ 12.2 µM) | 12.5 (≈ 24.3 µM) | 6.3 (≈ 12.2 µM) | 6.3 (≈ 12.2 µM)
CSC(C)(C)[C@H](NC(=O)c1ccc(C#Cc2ccc(CN3CCOCC3)cc2)cc1)C(=O)NO [Compound 238] | ≤ 0.1 | ≤ 0.1 | ≤ 0.1 | ≤ 0.1 | 0.8 (≈ 1.66 µM) | 1.6 (≈ 3.32 µM) | 1.6 (≈ 3.32 µM) | 3.1 (≈ 6.44 µM) | 1.6 (≈ 3.32 µM) | 3.1 (≈ 6.44 µM)
CC(C)([C@H](NC(=O)c1ccc(C#Cc2ccc(CNC3CC3)nc2)cc1)C(=O)NO)S(C)(=O)=O [Compound 348] | ≤ 0.1 | ≤ 0.1 | 0.8 (≈ 1.65 µM) | ≤ 0.1 | ≤ 0.1 | 0.8 (≈ 1.65 µM) | 0.8 (≈ 1.65 µM) | 3.1 (≈ 6.4 µM) | 0.8 (≈ 1.65 µM) | 0.8 (≈ 1.65 µM)
CC(C)([C@H](NC(=O)c1ccc(C#Cc2ccc(CNCc3ccccn3)cc2)cc1)C(=O)NO)S(C)(=O)=O [C.269] | ≤ 0.1 | ≤ 0.1 | ≤ 0.1 | ≤ 0.1 | ≤ 0.1 | 0.8 (≈ 1.5 µM) | 1.6 (≈ 2.99 µM) | 1.6 (≈ 2.99 µM) | 1.6 (≈ 2.99 µM) | 0.4 (≈ 0.748 µM)

Continued, in another order:

MIC PM 6391 [2] [µg/mL] | MIC PM 10775 [3] [µg/mL] | MIC PM 6267 [6] [µg/mL] | MIC PM 12080 [9] [µg/mL] | Structure (SMILES) | MIC MH 10720 [1] [µg/mL] | MIC MH 13093 [4] [µg/mL] | MIC MH 6357 [5] [µg/mL] | MIC MH 12587 [7] [µg/mL] | MIC MH 13065 [8] [µg/mL] | MIC MH 6374 [10] [µg/mL]
1.6 (≈ 3.67 µM) | ≤ 0.1 | 0.8 (≈ 1.83 µM) | ≤ 0.1 | CN1CCN(Cc2ccc(C#Cc3ccc(C(=O)N[C@@H](CO)C(=O)NO)cc3)cc2)CC1 [Compound 146] | 1.6 (≈ 3.67 µM) | 25 (≈ 57.3 µM) | 6.3 (≈ 14.4 µM) | 25 (≈ 57.3 µM) | 12.5 (≈ 28.6 µM) | 25 (≈ 57.3 µM)
0.4 (≈ 0.918 µM) | ≤ 0.1 | ≤ 0.1 | 0.4 (≈ 0.918 µM) | CC(C)(O)[C@H](NC(=O)c1ccc(C#Cc2ccc(CNC3CCC3)cc2)cc1)C(=O)NO [Compound 226] | 0.8 (≈ 1.84 µM) | 6.3 (≈ 14.5 µM) | 3.1 (≈ 7.12 µM) | 12.5 (≈ 28.7 µM) | 3.1 (≈ 7.12 µM) | 3.1 (≈ 7.12 µM)
0.4 (≈ 0.914 µM) | ≤ 0.1 | ≤ 0.1 | 0.2 (≈ 0.457 µM) | COCC(C)NCc1ccc(C#Cc2ccc(C(=O)N[C@H](C(=O)NO)C(C)C)cc2)cc1 (some centres unmarked) [Compound 198] | 0.8 (≈ 1.83 µM) | 6.3 (≈ 14.4 µM) | 3.1 (≈ 7.09 µM) | 12.5 (≈ 28.6 µM) | 3.1 (≈ 7.09 µM) | 6.3 (≈ 14.4 µM)
0.8 (≈ 1.76 µM) | ≤ 0.1 | 0.4 (≈ 0.882 µM) | 0.8 (≈ 1.76 µM) | CCCNCc1ccc(C#Cc2ccc(C(=O)N[C@H](C(=O)NO)C(C)(C)SC)cc2)cc1 [Compound 245] | 0.4 (≈ 0.882 µM) | 3.1 (≈ 6.83 µM) | 3.1 (≈ 6.83 µM) | 3.1 (≈ 6.83 µM) | 1.6 (≈ 3.53 µM) | 3.1 (≈ 6.83 µM)
0.8 (≈ 1.69 µM) | ≤ 0.1 | 1.6 (≈ 3.38 µM) | 0.4 (≈ 0.845 µM) | CC(C)(O)[C@H](NC(=O)c1ccc(C#Cc2ccc(CNCc3cccnc3)nc2)cc1)C(=O)NO [Compound 330] | 0.2 (≈ 0.422 µM) | 1.6 (≈ 3.38 µM) | 0.8 (≈ 1.69 µM) | 3.1 (≈ 6.55 µM) | 1.6 (≈ 3.38 µM) | 0.8 (≈ 1.69 µM)
≤ 0.1 | 0.4 (≈ 0.867 µM) | 3.1 (≈ 6.72 µM) | 0.2 (≈ 0.433 µM) | CC(=O)C(NC(=O)c1ccc(C#Cc2ccc(CNCc3cccs3)cc2)cc1)C(=O)NO (centres unmarked) [Compound 411] | 0.8 (≈ 1.73 µM) | 0.8 (≈ 1.73 µM) | 0.4 (≈ 0.867 µM) | 0.2 (≈ 0.433 µM) | 0.8 (≈ 1.73 µM) | 0.8 (≈ 1.73 µM)
